These results are taken from patent US20210038607A1, “OXADIAZOLYLTHIOPHENE DERIVATIVES USEFUL AS HISTONE DEACETYLASE INHIBITORS” (Karus Therapeutics Limited, priority 2018, published 2021).

For the assay, the target named is T1, Recombinant human HDAC6 (Homo sapiens, UniProt Q9UBN7).
T1 construct: full length, MW=159 kDa; GST (N); host or cells: Sf9 insect cells (baculovirus)
T1 sequence (Q9UBN7 1-1215): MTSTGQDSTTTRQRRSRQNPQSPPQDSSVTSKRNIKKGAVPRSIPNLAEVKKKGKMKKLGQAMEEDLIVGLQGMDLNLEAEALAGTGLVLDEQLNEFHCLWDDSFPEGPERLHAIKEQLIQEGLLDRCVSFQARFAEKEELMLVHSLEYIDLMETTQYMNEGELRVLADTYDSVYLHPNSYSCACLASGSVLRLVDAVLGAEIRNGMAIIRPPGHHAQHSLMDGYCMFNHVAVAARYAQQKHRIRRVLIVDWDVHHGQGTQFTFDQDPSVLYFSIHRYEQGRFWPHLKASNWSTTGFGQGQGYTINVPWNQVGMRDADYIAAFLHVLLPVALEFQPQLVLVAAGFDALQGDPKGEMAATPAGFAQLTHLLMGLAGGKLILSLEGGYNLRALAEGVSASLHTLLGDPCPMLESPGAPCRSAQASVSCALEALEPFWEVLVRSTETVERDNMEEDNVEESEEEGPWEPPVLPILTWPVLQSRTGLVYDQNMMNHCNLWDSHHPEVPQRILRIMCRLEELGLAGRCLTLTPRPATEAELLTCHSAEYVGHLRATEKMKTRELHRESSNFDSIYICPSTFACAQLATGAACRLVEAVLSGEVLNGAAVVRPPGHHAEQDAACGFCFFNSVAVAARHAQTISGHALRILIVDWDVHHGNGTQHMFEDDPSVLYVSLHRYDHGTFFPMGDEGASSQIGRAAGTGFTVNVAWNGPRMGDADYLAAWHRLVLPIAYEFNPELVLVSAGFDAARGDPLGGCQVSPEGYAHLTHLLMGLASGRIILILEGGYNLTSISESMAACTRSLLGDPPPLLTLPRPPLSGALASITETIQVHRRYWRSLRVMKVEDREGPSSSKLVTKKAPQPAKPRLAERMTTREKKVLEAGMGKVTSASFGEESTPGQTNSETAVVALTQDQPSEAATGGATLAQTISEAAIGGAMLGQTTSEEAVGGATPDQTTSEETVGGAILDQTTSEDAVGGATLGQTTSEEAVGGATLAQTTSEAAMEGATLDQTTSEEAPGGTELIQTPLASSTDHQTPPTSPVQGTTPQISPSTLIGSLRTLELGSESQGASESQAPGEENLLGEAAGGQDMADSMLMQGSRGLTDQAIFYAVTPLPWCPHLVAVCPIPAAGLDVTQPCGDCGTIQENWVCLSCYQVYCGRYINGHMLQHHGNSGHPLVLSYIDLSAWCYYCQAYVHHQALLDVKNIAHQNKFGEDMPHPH
The assay can be described thus: HDAC6 biochemical assay, AMC-labeled peptide substrate. The conditions noted are these: HDAC6; read-out: HDAC Isoform IC50 (nM) 6. A digest of the protocol:
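Two-step fluorogenic read-out: enzyme deacetylates 50 μM RHKK(Ac)AMC for 1 h at 30° C in pH 8.0 Tris buffer with BSA and 1% DMSO, then developer cleavage gives signal at Ex 360/Em 460. Enzyme: 0.3 ng/ul recombinant full-length human HDAC6, GST-tagged, Sf9-expressed.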

The structures appear in SMILES notation.

On to `FC(F)(F)c1nc(-c2ccc(CN(c3cnccn3)c3cc(CN4CCOCC4)ccn3)s2)no1` [Example GI, N-{4-[(Morpholin-4-yl)methyl]pyridin-2-yl}-N-({5-[5-(trifluoromethyl)-1,2,4-oxadiazol-3-yl]thiophen-2-yl}methyl)pyrazin-2-amine], for which the IC50 is at most 1000 nM. `O=C(c1nccnc1N(Cc1ccc(-c2noc(C(F)(F)F)n2)s1)c1cnccn1)N1CC(O)(C(F)(F)F)C1` [Example GQ, 1-{3-[(Pyrazin-2-yl)({5-[5-(trifluoromethyl)-1,2,4-oxadiazol-3-yl]thiophen-2-yl}methyl)amino]pyrazine-2-carbonyl}-3-(trifluoromethyl)azetidin-3-ol]: the IC50 was at most 1000 nM. Take `FC(F)(F)c1nc(-c2ccc(CN(c3ccccn3)c3ccccn3)s2)no1` [Example U, N-(Pyridin-2-yl)-N-({5-[5-(trifluoromethyl)-1,2,4-oxadiazol-3-yl]thiophen-2-yl}methyl)pyridin-2-amine]: the IC50 is at most 1000 nM.

On to `Fc1ccnc(N(Cc2ccc(-c3noc(C(F)(F)F)n3)s2)c2cnccn2)c1` [Example AG, N-(4-Fluoropyridin-2-yl)-N-({5-[5-(trifluoromethyl)-1,2,4-oxadiazol-3-yl]thiophen-2-yl}methyl)pyrazin-2-amine], for which the IC50 is at most 500 nM. With `COc1cncc(N(Cc2ccc(-c3noc(C(F)(F)F)n3)s2)c2cnccn2)n1` [Example BQ, 6-Methoxy-N-(pyrazin-2-yl)-N-({5-[5-(trifluoromethyl)-1,2,4-oxadiazol-3-yl]thiophen-2-yl}methyl)pyrazin-2-amine], the 50% inhibitory concentration (IC50) was at most 500 nM. Regarding `FC(F)(F)c1nc(-c2ccc(CN(c3cnccn3)c3cnccn3)s2)no1` [Example BA, N-(Pyrazin-2-yl)-N-({5-[5-(trifluoromethyl)-1,2,4-oxadiazol-3-yl]thiophen-2-yl}methyl)pyrazin-2-amine], the IC50 is at most 500 nM.

For `O=C(c1cnnc(N(Cc2ccc(-c3noc(C(F)(F)F)n3)s2)c2cnccn2)c1)N1CC[S+]([O-])CC1` [Example FU, 4-{6-[(Pyrazin-2-yl)({5-[5-(trifluoromethyl)-1,2,4-oxadiazol-3-yl]thiophen-2-yl}methyl)amino]pyridazine-4-carbonyl}-1lambda4-thiomorpholin-1-one], the IC50 is at most 500 nM. Consider `FC(F)(F)c1cnnc(N(Cc2ccc(-c3noc(C(F)(F)F)n3)s2)c2cc(C(F)(F)F)cnn2)c1` [Example EU, 5-(Trifluoromethyl)-N-({5-[5-(trifluoromethyl)-1,2,4-oxadiazol-3-yl]thiophen-2-yl}methyl)-N-[5-(trifluoromethyl)pyridazin-3-yl]pyridazin-3-amine], for which the IC50 was at most 500 nM. Next, `O=C(c1ccc(N(Cc2ccc(-c3noc(C(F)(F)F)n3)s2)c2cnccn2)nn1)N1CCOCC1` [Example DS, 6-(Morpholine-4-carbonyl)-N-(pyrazin-2-yl)-N-({5-[5-(trifluoromethyl)-1,2,4-oxadiazol-3-yl]thiophen-2-yl}methyl)pyridazin-3-amine]: at most 500 nM; `FC(F)(F)c1cncc(N(Cc2ccc(-c3noc(C(F)(F)F)n3)s2)c2cnccn2)n1` [Example BR, N-(Pyrazin-2-yl)-6-(trifluoromethyl)-N-({5-[5-(trifluoromethyl)-1,2,4-oxadiazol-3-yl]thiophen-2-yl}methyl)pyrazin-2-amine]: at most 10000 nM. Next, `O=C(c1cnnc(N(Cc2ccc(-c3noc(C(F)(F)F)n3)s2)c2cnccn2)c1)N1C[C@@H]2C[C@H]1CO2` [Example FV, 5-[(1S,4S)-2-Oxa-5-azabicyclo[2.2.1]heptane-5-carbonyl]-N-(pyrazin-2-yl)-N-({5-[5-(trifluoromethyl)-1,2,4-oxadiazol-3-yl]thiophen-2-yl}methyl)pyridazin-3-amine]: at most 500 nM.

Consider `FC(F)(F)c1cnnc(N(Cc2ccc(-c3noc(C(F)(F)F)n3)s2)c2cccnn2)c1` [Example ER, N-(Pyridazin-3-yl)-5-(trifluoromethyl)-N-({5-[5-(trifluoromethyl)-1,2,4-oxadiazol-3-yl]thiophen-2-yl}methyl)pyridazin-3-amine], for which the IC50 was at most 500 nM. Next, `O=C(c1cnnc(N(Cc2ccc(-c3noc(C(F)(F)F)n3)s2)c2cnccn2)c1)N1CC(C(F)F)C1` [Example GK, 5-[3-(Difluoromethyl)azetidine-1-carbonyl]-N-(pyrazin-2-yl)-N-({5-[5-(trifluoromethyl)-1,2,4-oxadiazol-3-yl]thiophen-2-yl}methyl)pyridazin-3-amine]: at most 500 nM. On to `OC1(c2cnnc(N(Cc3ccc(-c4noc(C(F)(F)F)n4)s3)c3cnccn3)c2)COC1` [Example GW, 3-{6-[(Pyrazin-2-yl)({5-[5-(trifluoromethyl)-1,2,4-oxadiazol-3-yl]thiophen-2-yl}methyl)amino]pyridazin-4-yl}oxetan-3-ol], for which the IC50 is at most 500 nM.

For `NC(=O)c1ccc(N(Cc2ccc(-c3noc(C(F)(F)F)n3)s2)c2cnccn2)nn1` [Example DQ, 6-[(Pyrazin-2-yl)({5-[5-(trifluoromethyl)-1,2,4-oxadiazol-3-yl]thiophen-2-yl}methyl)amino]pyridazine-3-carboxamide], the IC50 is at most 500 nM.

On to `CN(C(=O)c1cnnc(N(Cc2ccc(-c3noc(C(F)(F)F)n3)s2)c2cnccn2)c1)S(C)(=O)=O` [Example GE, N-Methanesulfonyl-N-methyl-6-[(pyrazin-2-yl)({5-[5-(trifluoromethyl)-1,2,4-oxadiazol-3-yl]thiophen-2-yl}methyl)amino]pyridazine-4-carboxamide], for which the IC50 is at most 500 nM. As to `O=C(c1cncc(N(Cc2ccc(-c3noc(C(F)(F)F)n3)s2)c2cnccn2)c1)N1CCOCC1` [Example GR, N-[5-(Morpholine-4-carbonyl)pyridin-3-yl]-N-({5-[5-(trifluoromethyl)-1,2,4-oxadiazol-3-yl]thiophen-2-yl}methyl)pyrazin-2-amine], the IC50 is at most 10000 nM.

In the case of `FC(F)(F)c1nc(-c2ccc(CN(c3cnccn3)c3cc(N4CCCC4)cnn3)s2)no1` [Example FQ, N-(Pyrazin-2-yl)-5-(pyrrolidin-1-yl)-N-({5-[5-(trifluoromethyl)-1,2,4-oxadiazol-3-yl]thiophen-2-yl}methyl)pyridazin-3-amine], the IC50 was at most 1000 nM. Take `O=C(c1cnnc(N(Cc2ccc(-c3noc(C(F)(F)F)n3)s2)c2cnccn2)c1)N1CC(C(F)(F)F)C1` [Example GJ, N-(Pyrazin-2-yl)-N-({5-[5-(trifluoromethyl)-1,2,4-oxadiazol-3-yl]thiophen-2-yl}methyl)-5-[3-(trifluoromethyl)azetidine-1-carbonyl]pyridazin-3-amine]: the IC50 was at most 500 nM. Next, `O=C(c1ccc(N(Cc2ccc(-c3noc(C(F)(F)F)n3)s2)c2cnccn2)nn1)N1CCCCC1` [Example FG, 6-(Piperidine-1-carbonyl)-N-(pyrazin-2-yl)-N-({5-[5-(trifluoromethyl)-1,2,4-oxadiazol-3-yl]thiophen-2-yl}methyl)pyridazin-3-amine]: at most 500 nM; `FC(F)c1cnnc(N(Cc2ccc(-c3noc(C(F)(F)F)n3)s2)c2cnccn2)c1` [Example GV, 5-(Difluoromethyl)-N-(pyrazin-2-yl)-N-({5-[5-(trifluoromethyl)-1,2,4-oxadiazol-3-yl]thiophen-2-yl}methyl)pyridazin-3-amine]: at most 500 nM.

Broadly, the IC50 is the point on the concentration scale where inhibition reaches its midpoint.
